Earlier results, collected in patent US20040208853A1, “Method and device for sanitation using bacteriophages” (priority 2000, published 2004).

System: bacterial counts on fresh-cut fruits
Settings: most effective chemical sanitizer

OO [hydrogen peroxide]
maximum reduction rate in bacterial counts on fresh-cut fruits: 1.3 logs
